Target: CNS nicotinic receptors
Experiment: Determination of binding to relevant receptor sites
Details: free base used to prepare the salts
Description: Receptor binding constants provide a measure of the ability of the compound to bind to half of the relevant receptor sites of certain brain cells of the patient. See, Cheng, et al., Biochem. Pharmacol. 22:3099 (1973). The (2S)-(4E)-N-methyl-5-[3-(5-isopropoxypyridin)yl]-4-penten-2-amine compound used to prepare the salts has extremely high affinity for the relevant receptors, with a binding affinity in the low nM range.
Binding of the compounds to relevant receptor sites was determined in accordance with the techniques described in U.S. Pat. No. 6,953,855 to Mazurov et al Inhibition constants (Ki values), reported in nM, were calculated from the IC50 values using the method of Cheng et al., Biochem, Pharmacol. 22:3099 (1973).

- binding affinity (receptor binding constant, Ki): low nM range
SMILES: CN[C@@H](C)C/C=C/c1cncc(OC(C)C)c1 [(2S)-(4E)-N-methyl-5-[3-(5-isopropoxypyridin)yl]-4-penten-2-amine]

Source: US8017785B2, “Salt forms of (2S)-(4E)-N-methyl-5-[3-(5-isopropoxypyridin)y1]-4-penten 2-amine” (AstraZeneca AB, priority 2006, dated 2011)
